Laboratory results from US10065990B2, “Cyclic peptide compound, and preparation method, pharmaceutical composition and use thereof” (HANGZHOU GUANYU BIO-MEDICAL CO., LTD, priority 2013, dated 2018).
Where two headings read alike, the source gives them in different places.

Legend:
HDAC3 = HDAC3 (Homo sapiens, UniProt O15379); experiment: HDAC biochemical activity measurement (fluorescent substrate deacetylation);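 further: fluorogenic acetyl-lysine substrate (20 µM) deacetylated by HDAC3, then developer added for 15 min at room temperature, release of fluorophore read at excitation 360 nm, emission 460 nm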
Chain of HDAC3 (O15379 whole entry, species assumed): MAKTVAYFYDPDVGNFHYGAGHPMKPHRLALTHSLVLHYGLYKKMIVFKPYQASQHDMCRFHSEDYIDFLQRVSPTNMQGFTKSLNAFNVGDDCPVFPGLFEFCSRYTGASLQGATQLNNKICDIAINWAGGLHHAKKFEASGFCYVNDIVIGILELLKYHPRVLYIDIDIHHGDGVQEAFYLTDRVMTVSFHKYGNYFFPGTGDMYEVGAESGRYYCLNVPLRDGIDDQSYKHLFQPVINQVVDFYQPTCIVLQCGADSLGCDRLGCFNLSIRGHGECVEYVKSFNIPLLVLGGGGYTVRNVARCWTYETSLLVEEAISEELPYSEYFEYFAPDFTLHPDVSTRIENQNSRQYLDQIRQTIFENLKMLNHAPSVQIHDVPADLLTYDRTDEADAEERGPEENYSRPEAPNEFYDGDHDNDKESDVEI
Chain of HDAC3 (Q9Y618 395-489 partner limits assumed, species assumed): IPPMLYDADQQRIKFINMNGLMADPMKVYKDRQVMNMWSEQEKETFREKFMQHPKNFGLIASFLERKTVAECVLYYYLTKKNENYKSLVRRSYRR

[1] = tested on: U937 (human leukemia cells); experiment: MTT cancer cell growth inhibition; assay type: cell-based; details: Homo sapiens, U-937, 72 h, MTT
Procedure, shortened: (§1)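 Cells seeded at 1500/well in DMEM or RPMI 1640 with 10% FBS, incubated overnight, then exposed to compound at 10^−5 to 10^−10 M final in triplicate for 72 h at 37° C, 5% CO2. MTT added for 4 h, formazan dissolved in DMSO, absorbance read at 570 nm; GI50 derived from viability.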

[2] = tested on: N-87 (human gastric cancer cells); experiment: MTT cancer cell growth inhibition; assay type: cell-based; details: Homo sapiens, 72 h, MTT, 72 hours incubation, N-87 cells; read-out: GI50 N-87
Procedure, shortened: as §1

[3] = tested on: BGC-823 (human gastric cancer cells); experiment: MTT cancer cell growth inhibition; assay type: cell-based; details: Homo sapiens, BGC-823, 72 h, MTT
Procedure, shortened: as §1

[4] = tested on: Huh-7 (human hepatoma cells); experiment: MTT cancer cell growth inhibition; assay type: cell-based; details: Homo sapiens, Huh-7, 72 h, MTT, 72 hours incubation, Huh-7 cells; read-out: GI50 Huh-7
Procedure, shortened: as §1

[5] = tested on: MCF-7 (human breast cancer cells); experiment: MTT cancer cell growth inhibition; assay type: cell-based; details: Homo sapiens, MCF7, 72 h
Procedure, shortened: as §1

[6] = tested on: MDA-MB-231 (breast cancer cells); experiment: MTT cancer cell growth inhibition; assay type: cell-based; details: Homo sapiens, MDA-MB-231, 72 h, read-out: GI50 MDA-MB-231, MTT, 72 hours incubation, MDA-MB-231 cells
Procedure, shortened: as §1

[7] = tested on: SGC-7901 (human gastric cancer cells); experiment: MTT cancer cell growth inhibition; assay type: cell-based; details: Homo sapiens, SGC-7901, 72 h, MTT, 72 hours incubation, SGC-7901 cells; read-out: GI50 SGC-7901
Procedure, shortened: as §1

[8] = tested on: H1975 (non-small cell lung adenocarcinoma); experiment: MTT cancer cell growth inhibition; assay type: cell-based; details: Homo sapiens, NCI-H1975, 72 h, MTT, 72 hours incubation, H1975 cells; read-out: GI50 H1975
Procedure, shortened: as §1

[9] = tested on: MOLT-4 (human acute lymphoblastic leukemia cells); experiment: MTT cancer cell growth inhibition; assay type: cell-based; details: Homo sapiens, MOLT-4, 72 h, MTT
Procedure, shortened: as §1

[10] = tested on: lncap (prostate cancer cells); experiment: MTT cancer cell growth inhibition; assay type: cell-based; details: Homo sapiens, LNCaP, 72 h, MTT
Procedure, shortened: as §1

[11] = tested on: KBM5-T315I (human chronic myelogenous leukemia); experiment: MTT cancer cell growth inhibition; assay type: cell-based; details: Homo sapiens, 72 h, MTT, 72 hours incubation, KBM5-T315I cells; read-out: GI50 KBM5-T315I
Procedure, shortened: as §1

[12] = tested on: PANC-1 (Pac-1, human pancreatic cancer cells); experiment: MTT cancer cell growth inhibition; assay type: cell-based; details: Homo sapiens, PANC-1, 72 h, MTT
Procedure, shortened: as §1

[13] = tested on: HCC827 (human non-small cell lung cancer cells); experiment: MTT cancer cell growth inhibition; assay type: cell-based; details: Homo sapiens, HCC827, 72 h, MTT, 72 hours incubation, HCC827 cells; read-out: GI50 HCC827
Procedure, shortened: as §1

[14] = tested on: DU145 (human prostate cancer cells); experiment: MTT cancer cell growth inhibition; assay type: cell-based; details: Homo sapiens, DU-145, 72 h, MTT
Procedure, shortened: as §1

[15] = tested on: Hela (human cervical cancer cells); experiment: MTT cancer cell growth inhibition; assay type: cell-based; details: Homo sapiens, HeLa, 72 h, MTT
Procedure, shortened: as §1

[16] = tested on: Bel-7402 (human hepatoma cells); experiment: MTT cancer cell growth inhibition; assay type: cell-based; details: Homo sapiens, Bel-7402, 72 h, MTT, 72 hours incubation, Bel-7402 cells; read-out: GI50 Bel-7402
Procedure, shortened: as §1

[17] = tested on: HT1080 (human fibrosarcoma cells); experiment: MTT cancer cell growth inhibition; assay type: cell-based; details: Homo sapiens, HT-1080, 72 h, MTT
Procedure, shortened: as §1

[18] = tested on: KBM-5 (human chronic myelogenous leukemia); experiment: MTT cancer cell growth inhibition; assay type: cell-based; details: Homo sapiens, KBM5, 72 h, MTT, 72 hours incubation, KBM-5 cells; read-out: GI50 KBM-5
Procedure, shortened: as §1

[19] = tested on: A549 (human lung cancer cells); experiment: MTT cancer cell growth inhibition; assay type: cell-based; details: Homo sapiens, A549, 72 h, MTT
Procedure, shortened: as §1

[20] = tested on: K562 (human leukemia cells); experiment: MTT cancer cell growth inhibition; assay type: cell-based; details: Homo sapiens, K562, 72 h, MTT, 72 hours incubation, K562 cells; read-out: GI50 K562
Procedure, shortened: as §1

HDAC1 = HDAC1 (Homo sapiens, UniProt Q13547); experiment: HDAC biochemical activity measurement (fluorescent substrate deacetylation);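 further: fluorogenic acetyl-lysine substrate (20 µM) deacetylated by HDAC1, then developer releases fluorophore read at 360 nm excitation and 460 nm emission, inhibitor incubated 30 min at 37 °C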
Chain of HDAC1 (Q13547 whole entry, species assumed): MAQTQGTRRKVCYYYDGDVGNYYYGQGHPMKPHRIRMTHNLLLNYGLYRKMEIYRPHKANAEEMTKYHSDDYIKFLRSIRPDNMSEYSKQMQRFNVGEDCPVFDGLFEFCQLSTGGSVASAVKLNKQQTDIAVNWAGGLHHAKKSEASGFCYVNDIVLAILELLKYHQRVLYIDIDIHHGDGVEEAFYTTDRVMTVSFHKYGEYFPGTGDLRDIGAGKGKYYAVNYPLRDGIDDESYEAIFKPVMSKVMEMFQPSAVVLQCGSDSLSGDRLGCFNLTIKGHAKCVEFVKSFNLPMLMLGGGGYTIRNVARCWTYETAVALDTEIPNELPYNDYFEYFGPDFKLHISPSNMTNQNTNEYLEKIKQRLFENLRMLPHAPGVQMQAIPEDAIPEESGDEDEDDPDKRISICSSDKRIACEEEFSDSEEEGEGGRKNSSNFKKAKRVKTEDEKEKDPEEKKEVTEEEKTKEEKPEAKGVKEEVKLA

HDAC2 = HDAC2 (Homo sapiens, UniProt Q92769); experiment: as above; details: 37° C. 30 minutes;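 further: HDAC2 enzyme with an acetyl-lysine fluorescent substrate, then developer added, fluorescence read at excitation 360 nm and emission 460 nm, inhibition measured across several compound concentrations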
Chain of HDAC2 (Q92769 whole entry, species assumed): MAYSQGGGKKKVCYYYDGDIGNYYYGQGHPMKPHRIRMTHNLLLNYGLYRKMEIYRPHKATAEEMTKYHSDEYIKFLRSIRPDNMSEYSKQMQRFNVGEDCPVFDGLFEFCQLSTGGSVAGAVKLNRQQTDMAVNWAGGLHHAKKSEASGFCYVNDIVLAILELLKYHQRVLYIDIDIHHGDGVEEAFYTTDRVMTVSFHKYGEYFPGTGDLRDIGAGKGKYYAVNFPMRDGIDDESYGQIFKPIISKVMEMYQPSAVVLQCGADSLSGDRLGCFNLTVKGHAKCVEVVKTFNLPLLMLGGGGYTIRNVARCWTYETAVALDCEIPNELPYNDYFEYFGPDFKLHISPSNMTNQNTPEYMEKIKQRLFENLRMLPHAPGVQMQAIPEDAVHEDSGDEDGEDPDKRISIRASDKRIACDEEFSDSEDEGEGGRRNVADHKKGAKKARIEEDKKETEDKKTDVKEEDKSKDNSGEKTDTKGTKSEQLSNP

[21] = 72 hours incubation, read-out: GI50 MCF
[22] = 72 hours incubation, read-out: GI50 Mol
[23] = 72 hours incubation, read-out: GI50 PAN
[24] = 72 hours incubation, read-out: GI50 Hela
[25] = 72 hours incubation, read-out: GI50 HT1
[26] = 72 hours incubation, read-out: GI50 A54
[27] = HDAC1, 37° C. 30 minutes, read-out: IC50 HDAC1
[28] = read-out: IC50 HDAC3, HDAC3, 37° C. 30 minutes
[29] = 72 hours, present invention, read-out: GI50 U937, a
[30] = 72 hours, present invention, read-out: GI50 BGC823, a
[31] = 72 hours, present invention, read-out: GI50 MCF7, a
[32] = 72 hours, present invention, read-out: GI50 Molt-4, a
[33] = 72 hours, present invention, read-out: GI50 lncap, a
[34] = 72 hours, present invention, read-out: GI50 PANC-1, a
[35] = 72 hours, present invention, read-out: GI50 Du145, a
[36] = 72 hours, present invention, read-out: GI50 Hela, a
[37] = 72 hours, present invention, read-out: GI50 HT1080, a
[38] = 72 hours, present invention, read-out: GI50 A549, a
[39] = Table 2, read-out: IC50 HDAC1, a (compounds of the present invention)

GI50 [2] [µM] | GI50 [4] [µM] | GI50 [5, 21] [µM] | GI50 [6] [µM] | GI50 [7] [µM] | GI50 [8] [µM] | GI50 [9, 22] [µM] | GI50 [11] [µM] | GI50 [12, 23] [µM] | GI50 [13] [µM] | GI50 [15, 24] [µM] | GI50 [16] [µM] | GI50 [17, 25] [µM] | GI50 [18] [µM] | GI50 [19, 26] [µM] | GI50 [20] [µM] | IC50 (HDAC1; [27]) [µM] | IC50 (HDAC2) [µM] | IC50 (HDAC3; [28]) [µM] | GI50 [1, 29] [µM] | Compound | also measured
0.067 | 0.037 | 0.05 | 0.037 | 0.043 | 0.034 | 0.03 | 0.059 | 0.06 | 0.061 | 0.09 | 0.061 | 0.06 | 0.094 | 0.04 | 0.033 | 0.064 | 0.032 | – | – | C/C=C1\NC(=O)c2nc(ccc2F)CNC(=O)C[C@@H](/C=C/CCSC(=O)CC)OC(=O)[C@H](C(C)C)NC1=O [Example 45] | IC50 (HDAC3): 0.041 µM; GI50 ([1]; 72 hours incubation, read-out: GI50 U93): 0.03 µM; GI50 ([3]; 72 hours incubation, read-out: GI50 BG): 0.05 µM; GI50 ([10]; 72 hours incubation, read-out: GI50 lnca): 0.03 µM; GI50 ([14]; 72 hours incubation, read-out: GI50 Du1): 0.03 µM
0.035 | 0.053 | 0.03 | 0.097 | 0.031 | 0.026 | 0.01 | 0.026 | 0.06 | 0.053 | 0.05 | 0.083 | 0.04 | 0.044 | 0.08 | 0.083 | 0.045 | 0.064 | 0.034 | 0.001 | C/C=C1\NC(=O)c2cccc(n2)CNC(=O)C[C@@H](/C=C/CCSC(=O)CCCCCCC)OC(=O)[C@H](CC)NC1=O [Compound 9] | GI50 [3, 30]: 0.007 µM; GI50 [5, 31]: 0.03 µM; GI50 [9, 32]: 0.011 µM; GI50 [10, 33]: 0.009 µM; GI50 [12, 34]: 0.06 µM; GI50 [14, 35]: 0.002 µM; GI50 [15, 36]: 0.05 µM; GI50 [17, 37]: 0.04 µM; GI50 [19, 38]: 0.08 µM; IC50 (HDAC1; [39]): < 0.05 µM; IC50 (HDAC1; Table 3, read-out: IC50 HDAC1, D (non-substituent)): 0.045 µM
0.041 | 0.021 | – | 0.047 | 0.032 | 0.063 | – | 0.033 | – | 0.053 | – | 0.038 | – | 0.056 | – | 0.012 | 0.09 | 0.069 | 0.087 | 0.11 | CCCCCCCC(=O)SCC/C=C/[C@@H]1CC(=O)NCc2cccc(n2)C(=O)NCC(=O)N[C@@H](C(C)C)C(=O)O1 [Compound 246] | GI50 ([1]; U937 cells, 72 hours incubation, read-out: GI50 U93): 0.11 µM; GI50 ([3]; BGC-823 cells, 72 hours incubation, read-out: GI50 BG): 1.02 µM; GI50 [3, 30]: 1.02 µM; GI50 [5, 31]: 0.31 µM; GI50 ([5]; MCF-7 cells, 72 hours incubation, read-out: GI50 MCF): 0.31 µM; GI50 ([9]; MOLT-4 cells, 72 hours incubation, read-out: GI50 Mol): 0.91 µM; GI50 [9, 32]: 0.91 µM; GI50 [10, 33]: 0.13 µM; GI50 ([10]; lncap cells, 72 hours incubation, read-out: GI50 lnca): 0.13 µM; GI50 [12, 34]: 0.87 µM; GI50 ([12]; PANC-1 cells, 72 hours incubation, read-out: GI50 PAN): 0.87 µM; GI50 ([14]; DU145 cells, 72 hours incubation, read-out: GI50 Du1): 0.02 µM; GI50 [14, 35]: 0.02 µM; GI50 ([15]; Hela cells, 72 hours incubation, read-out: GI50 Hela): 0.01 µM; GI50 [15, 36]: 0.013 µM; GI50 ([17]; HT1080 cells, 72 hours incubation, read-out: GI50 HT1): 0.01 µM; GI50 [17, 37]: 0.017 µM; GI50 ([19]; A549 cells, 72 hours incubation, read-out: GI50 A54): 0.11 µM; GI50 [19, 38]: 0.11 µM; IC50 (HDAC1; [39]): < 0.1 µM
